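How tested: cells in 96-well plates exposed to compound for 48 hours at five concentrations. GI50: concentration for 50% inhibition of growth.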 Calls of active or inactive are those of the source. No stated cut-off is given here; in the data, active = GI50 up to about 1.1 µM and inactive = higher. Peptide text beside a SMILES is read from it. * marks the point of attachment. Cbz = O=C(OCc1ccccc1)*; CH2Cl = ClC*
How the values were obtained:
Assay in all cases: growth of human tumour cells (NCI), 48 h
RXF 393 = tested on: RXF 393
MDA-N = tested on: MDA-N
HT-29 = tested on: HT-29
SN12C = tested on: SN12C
UACC-62 = tested on: UACC-62
SF-295 = tested on: SF-295
SF-268 = tested on: SF-268
A549 = tested on: A549
UO-31 = tested on: UO-31
EKVX = tested on: EKVX
DU-145 = tested on: DU-145
Malme-3M = tested on: Malme-3M
OVCAR-5 = tested on: OVCAR-5
MCF7 = tested on: MCF7
A498 = tested on: A498
HCT-116 = tested on: HCT-116
K562 = tested on: K562
BT-549 = tested on: BT-549
NCI-H522 = tested on: NCI-H522
HOP-92 = tested on: HOP-92
MDA-MB-231 = tested on: MDA-MB-231
MDA-MB-435 = tested on: MDA-MB-435
CCRF-CEM = tested on: CCRF-CEM
786-0 = tested on: 786-0
SK-MEL-2 = tested on: SK-MEL-2
PC-3 = tested on: PC-3
SK-OV-3 = tested on: SK-OV-3
KM12 = tested on: KM12
SW-620 = tested on: SW-620
OVCAR-4 = tested on: OVCAR-4
SK-MEL-28 = tested on: SK-MEL-28
OVCAR-3 = tested on: OVCAR-3
SNB-75 = tested on: SNB-75
NCI/ADR-RES = tested on: NCI/ADR-RES
HCC 2998 = tested on: HCC 2998
OVCAR-8 = tested on: OVCAR-8
UACC-257 = tested on: UACC-257
SR = tested on: SR
CAKI-1 = tested on: CAKI-1
NCI-H23 = tested on: NCI-H23
TK-10 = tested on: TK-10
Hs-578T = tested on: Hs-578T
IGROV-1 = tested on: IGROV-1
SF-539 = tested on: SF-539
M14 = tested on: M14
LOX IMVI = tested on: LOX IMVI
HOP-62 = tested on: HOP-62
NCI-H460 = tested on: NCI-H460
ACHN = tested on: ACHN
RPMI-8226 = tested on: RPMI-8226
NCI-H226 = tested on: NCI-H226
HL-60 = tested on: HL-60
SNB-19 = tested on: SNB-19
COLO 205 = tested on: COLO 205
MOLT-4 = tested on: MOLT-4
SK-MEL-5 = tested on: SK-MEL-5
U-251 = tested on: U-251
T47D = tested on: T47D
HCT-15 = tested on: HCT-15

COC(=O)C1SC[C@H]2C(=O)N(c3ccccc3)C(=O)N12 (stereo partly drawn)
GI50 (RXF 393): > 100 µM (inactive) | GI50 (MDA-N): > 100 µM (inactive) | GI50 (HT-29): > 100 µM (inactive) | GI50 (SN12C): > 100 µM (inactive) | GI50 (UACC-62): > 100 µM (inactive) | GI50 (SF-295): > 100 µM (inactive) | GI50 (SF-268): > 100 µM (inactive) | GI50 (A549): > 100 µM (inactive) | GI50 (UO-31): > 100 µM (inactive) | GI50 (EKVX): > 100 µM (inactive) | GI50 (DU-145): > 100 µM (inactive) | GI50 (Malme-3M): > 100 µM (inactive) | GI50 (OVCAR-5): > 100 µM (inactive) | GI50 (MCF7): > 100 µM (inactive) | GI50 (A498): 21.4 µM (inactive) | GI50 (HCT-116): > 100 µM (inactive) | GI50 (K562): > 100 µM (inactive) | GI50 (BT-549): > 100 µM (inactive) | GI50 (NCI-H522): > 100 µM (inactive) | GI50 (HOP-92): 85.3 µM (inactive) | GI50 (MDA-MB-231): > 100 µM (inactive) | GI50 (MDA-MB-435): > 100 µM (inactive) | GI50 (CCRF-CEM): > 100 µM (inactive) | GI50 (786-0): > 100 µM (inactive) | GI50 (SK-MEL-2): > 100 µM (inactive) | GI50 (PC-3): > 100 µM (inactive) | GI50 (SK-OV-3): > 100 µM (inactive) | GI50 (KM12): > 100 µM (inactive) | GI50 (SW-620): > 100 µM (inactive) | GI50 (OVCAR-4): > 100 µM (inactive) | GI50 (SK-MEL-28): > 100 µM (inactive) | GI50 (OVCAR-3): > 100 µM (inactive) | GI50 (SNB-75): > 100 µM (inactive) | GI50 (NCI/ADR-RES): > 100 µM (inactive) | GI50 (HCC 2998): > 100 µM (inactive) | GI50 (OVCAR-8): > 100 µM (inactive) | GI50 (UACC-257): > 100 µM (inactive) | GI50 (SR): > 100 µM (inactive) | GI50 (CAKI-1): > 100 µM (inactive) | GI50 (NCI-H23): > 100 µM (inactive) | GI50 (TK-10): > 100 µM (inactive) | GI50 (Hs-578T): > 100 µM (inactive) | GI50 (IGROV-1): > 100 µM (inactive) | GI50 (SF-539): > 100 µM (inactive) | GI50 (M14): > 100 µM (inactive) | GI50 (LOX IMVI): > 100 µM (inactive) | GI50 (HOP-62): > 100 µM (inactive) | GI50 (NCI-H460): > 100 µM (inactive) | GI50 (ACHN): > 100 µM (inactive) | GI50 (RPMI-8226): > 100 µM (inactive) | GI50 (NCI-H226): > 100 µM (inactive) | GI50 (HL-60): > 100 µM (inactive) | GI50 (SNB-19): > 100 µM (inactive) | GI50 (COLO 205): > 100 µM (inactive) | GI50 (MOLT-4): > 100 µM (inactive) | GI50 (SK-MEL-5): > 100 µM (inactive) | GI50 (U-251): > 100 µM (inactive) | GI50 (T47D): > 100 µM (inactive) | GI50 (HCT-15): > 100 µM

CC(C)CC(NC(=O)OCc1ccccc1)C(=O)NC(Cc1ccccc1)C(=O)CCl (stereo not drawn) (Cbz-Leu-Phe-CH2Cl; configuration not given here)
GI50 (RXF 393): 1.7 µM (inactive) | GI50 (MDA-N): 1.56 µM (inactive) | GI50 (HT-29): 2.68 µM (inactive) | GI50 (SN12C): 1.77 µM (inactive) | GI50 (UACC-62): 2.71 µM (inactive) | GI50 (SF-295): 17.5 µM (inactive) | GI50 (SF-268): 4.86 µM (inactive) | GI50 (A549): 15.9 µM (inactive) | GI50 (UO-31): 6.46 µM (inactive) | GI50 (EKVX): 18.6 µM (inactive) | GI50 (DU-145): > 100 µM (inactive) | GI50 (Malme-3M): 1.92 µM (inactive) | GI50 (OVCAR-5): 3.71 µM (inactive) | GI50 (MCF7): 2.55 µM (inactive) | GI50 (A498): 23.6 µM (inactive) | GI50 (HCT-116): 1.68 µM (inactive) | GI50 (K562): 0.7 µM (active) | GI50 (BT-549): 2.47 µM (inactive) | GI50 (NCI-H522): 1.38 µM (inactive) | GI50 (HOP-92): 1.89 µM (inactive) | GI50 (MDA-MB-231): 1.69 µM (inactive) | GI50 (MDA-MB-435): 2.34 µM (inactive) | GI50 (CCRF-CEM): 0.204 µM (active) | GI50 (786-0): 1.66 µM (inactive) | GI50 (SK-MEL-2): 2.05 µM (inactive) | GI50 (PC-3): 4.76 µM (inactive) | GI50 (SK-OV-3): 11.4 µM (inactive) | GI50 (KM12): 9.77 µM (inactive) | GI50 (SW-620): 1.57 µM (inactive) | GI50 (OVCAR-4): 2.08 µM (inactive) | GI50 (SK-MEL-28): 1.85 µM (inactive) | GI50 (OVCAR-3): 3.72 µM (inactive) | GI50 (SNB-75): 4.78 µM (inactive) | GI50 (NCI/ADR-RES): 2.44 µM (inactive) | GI50 (HCC 2998): 13.2 µM (inactive) | GI50 (OVCAR-8): 2.08 µM (inactive) | GI50 (UACC-257): 4 µM (inactive) | GI50 (SR): 0.501 µM (active) | GI50 (CAKI-1): 5.14 µM (inactive) | GI50 (NCI-H23): 2.03 µM (inactive) | GI50 (TK-10): 1.82 µM (inactive) | GI50 (Hs-578T): 4.62 µM (inactive) | GI50 (IGROV-1): 2 µM (inactive) | GI50 (SF-539): 3.32 µM (inactive) | GI50 (M14): 1.79 µM (inactive) | GI50 (LOX IMVI): 0.719 µM (active) | GI50 (HOP-62): 16.1 µM (inactive) | GI50 (NCI-H460): 6.5 µM (inactive) | GI50 (ACHN): 4.25 µM (inactive) | GI50 (RPMI-8226): 1.61 µM (inactive) | GI50 (NCI-H226): 1.91 µM (inactive) | GI50 (HL-60): 1.33 µM (inactive) | GI50 (SNB-19): 23.6 µM (inactive) | GI50 (COLO 205): 2.93 µM (inactive) | GI50 (MOLT-4): 0.664 µM (active) | GI50 (SK-MEL-5): 1.82 µM (inactive) | GI50 (U-251): 8.38 µM (inactive) | GI50 (T47D): 2.21 µM (inactive) | GI50 (HCT-15): 1.66 µM
